We go through two molecules from US20240261351A1, “COMPOSITIONS AND METHODS FOR THE TREATMENT OF BONE AND JOINT DISEASES” (priority 2021, published 2024).

The nature of data set [1]: Strontium blood levels by Inductively Coupled Plasma Mass Spectrometry. The conditions noted are these: for maximum strontium blood level: 10-15 g strontium salt daily split morning and evening plus 50 g Aquamin daily as top dressing for 14 days, blood drawn in the morning before feeding, individual horses. The method, then: Approximately 4 months into the trial, strontium blood levels were measured in a small group of horses. […] (Li et al., 2009). To measure strontium blood levels, Inductively Coupled Plasma Mass Spectrometry was used (Eurofins Lab, (Wisconsin USA)).
A group of six horses were utilized and were administered the subject compositions for 14 days total. The compositions were added to morning and evening feed as a top dressing. All subjects received 50 g of “Aquamin” daily given as 25 g in morning and 25 g in evening. Three horses received Strontium ranelate at 10 g, 12 g, and 15 g daily split between the morning and evening. Three horses received Strontium citrate at 10 g, 12 g, and 14 g daily split morning and evening. Blood samples were taken a day 0, 1, 5, 8, 12, and 15 days. Bloods were drawn first thing in the morning before any supplements were fed.

The conditions of data set [2]: human, receiving 2 grams per day (AusProtos, 2013); cited from earlier work.

“And” between values parts separate entries of the source, which are not always exact repeats. Identical values can stand only once.

Regarding strontium citrate, in data set [1], the “maximum strontium blood level” value was 9.3 µmol/L and 9.5 µmol/L. Also, in data set [1] (six-horse 14 day study with 50 g Aquamin daily), the “strontium blood levels compared with strontium ranelate” value is given as “comparable”.

Take `N#Cc1c(N(CC(=O)[O-])CC(=O)[O-])sc(C(=O)[O-])c1CC(=O)[O-].[Sr+2].[Sr+2]` [strontium ranelate, reference compound]: the strontium blood levels in data set [2] was 140 to 150 µmol/L. Further, the “maximum strontium blood level” value in data set [1] is on record as “about 7.5 μmole/L”.
